From article PMC3549755, “A comparison of the ability of rilpivirine (TMC278) and selected analogues to inhibit clinically relevant HIV-1 reverse transcriptase mutants” (Retrovirology, 2012)
Read-outs that look alike come from different tables or passages of the source.

What was measured:
[1] = system: viral vector with Y181C mutant HIV-1 RT; assay: single-round infectivity assay, luciferase reporter, Y181C RT vector; format: cell-based; settings: Human immunodeficiency virus 1; HOS cells, reduction of luciferase reporter activity, SD in parentheses
Source text: (§1) We examined the effects of rilpivirine and the analogues on HIV-1 replication using a previously described assay and report the concentrations at which luciferase reporter activity was reduced by half relative to uninhibited controls (EC50) with standard deviations in parentheses. In the assay, viral vectors that replicate using WT HIV reverse transcriptase or one of several mutants (L100I, K103N, V106A, E138K, Y181C, Y188L, H221Y and the double mutant K103N/Y181C) were used to infect cells in a single round assay. These mutants were chosen either because they are known NNRTI resistance mutations (L100I, K103N, Y181C, and the K103N/Y181C double mutant), they were selected in patients in rilpivirine clinical trials (E138K and H221Y), or they are positioned to make significant Van der Waals contacts with rilpivirine (V106A and Y188L). All compounds were initially screened against a panel that included at least one RT mutant from all three groups (WT, K103N, E138K, Y181C and Y188L). The cytotoxicity of the compounds was also determined to establish the therapeutic index of each of the compounds.
(§2) Procedures for virion production and cell-based assay have been reported. Briefly, all cell cultures were maintained in Dulbecco’s modified Eagle’s medium (Invitrogen, Carlsbad, CA) with 5% (v/v) fetal bovine serum, 5% newborn calf serum, penicillin (50 units/mL) and streptomycin (50 μg/mL) (Quality Biological, Gaithersburg, MD). […]. Transfected cells were incubated at 37°C for 8 hrs, washed twice with PBS, fresh media was added and the cells were returned to the incubator for 48 hrs. The pNLNgoMIVR^+ΔEnv.LUC plasmid encodes the HIV-1 genome with an Env deletion and either WT HIV-1 RT, or one of the following mutants: L100I, K103N, V106A, E138K, Y181C, Y188L, H221Y, or K103N/Y181C. Supernatants from each plate were clarified by low-speed centrifugation (3,000xg for 20 min), then treated with 200 U DNase I (Roche Applied Science, Mannheim, Germany) at room temperature for 3 hours. Viral supernatants were stored at −20°C until used.
(§3) One day prior to infection, 100 μL of human osteosarcoma (HOS) cells were added to each well of a 96-well plate at a density of 4x10^4 cells/mL. Plates were incubated overnight at 37°C. On the day of infection, 10X drug stocks were prepared by serial dilution in media from an initial 10 mM stock solution in DMSO. Cells in the 96-well plate were pre-treated by the addition of 22 μL of the appropriate drug stock and returned to the incubator for 3 hours. Thawed virus stocks were diluted 1:2 in media, then 100 μL of virus was added to the pre-treated cells, bringing the final drug concentrations to 0.1 nM to 100 nM, with DMSO-treated cells (no drug) serving as a reference. In addition, 12 wells of cells treated with media and no virus served as negative controls. Plates were returned to the incubator for an additional 42 hours, at which time the luciferase activity was determined using Steady-Lite Plus kits (PerkinElmer, Waltham, MA). Background luciferase activity, as measured for the negative controls, was subtracted from the activities measured for each infected well. Drug-free, DMSO-treated wells were normalized to 100% infectivity. Infectivity at each drug concentration was determined as a percentage of these drug-free infections. Drug concentration versus percent infectivity was plotted for each RT-inhibitor combination, and the data were fit to a four-parameter sigmoidal curve using KaleidaGraph 4.0 (Synergy Software, Reading, PA). The inflection point of each curve is reported as the IC50. All values are the mean of triplicate infections.

[2] = system: viral vector with K103N/Y181C double mutant HIV-1 RT; assay: single-round infectivity assay, luciferase reporter, K103N/Y181C RT vector; format: cell-based; settings: Human immunodeficiency virus 1; broader panel, SD in parentheses
Source text: as §1, §2, §3

[3] = system: viral vector with V106A mutant HIV-1 RT; assay: single-round infectivity assay, luciferase reporter, V106A RT vector; format: cell-based; settings: Human immunodeficiency virus 1; broader panel, SD in parentheses
Source text: as §1, §2, §3

[4] = system: viral vector with L100I mutant HIV-1 RT; assay: single-round infectivity assay, luciferase reporter, L100I RT vector; format: cell-based; settings: Human immunodeficiency virus 1; broader panel, SD in parentheses
Source text: as §1, §2, §3

[5] = system: viral vector with Y188L mutant HIV-1 RT; assay: single-round infectivity assay, luciferase reporter, Y188L RT vector; format: cell-based; settings: for EC50: Human immunodeficiency virus 1, HOS cells, reduction of luciferase reporter activity, SD in parentheses
Source text: as §1, §2, §3

[6] = system: viral vector with H221Y mutant HIV-1 RT; assay: single-round infectivity assay, luciferase reporter, H221Y RT vector; format: cell-based; settings: Human immunodeficiency virus 1; broader panel, SD in parentheses
Source text: as §1, §2, §3

[7] = system: viral vector with K103N mutant HIV-1 RT; assay: single-round infectivity assay, luciferase reporter, K103N RT vector; format: cell-based; settings: Human immunodeficiency virus 1; HOS cells, reduction of luciferase reporter activity, SD in parentheses
Source text: as §1, §2, §3

HOS cells = assay: cytotoxicity assay (ATP-Lite cell viability); format: cell-based, human; settings: ratio of CC50/EC50 (WT)
Protocol: (§4) One day prior to treatment, HOS cells were prepared in 96-well plates as described for the infectivity assays, except that 12 wells per plate were treated with cell-free media to serve as negative controls. The following day, serial dilutions of drug stocks were prepared in media from 10 mM stocks in DMSO. Each well received 11 μL of the appropriate drug concentration or DMSO-treated, drug-free media. Final drug concentrations ranged from 0.5 μM to 300 μM. The drug-free wells served as references. Plates were then incubated at 37°C for 48 hours. Cell viability was determined using luciferase reporter ATP-Lite kits (PerkinElmer). As described for the infectivity assays, drug-free reference wells were normalized to 100%, and viabilities at different drug concentrations were determined as a percentage of these references. Data were plotted and analyzed in the same manner as the IC50 data, with the inflection points of the curves reported as CC50.

[8] = system: viral vector with E138K mutant HIV-1 RT; assay: single-round infectivity assay, luciferase reporter, E138K RT vector; format: cell-based; settings: for EC50: Human immunodeficiency virus 1, HOS cells, reduction of luciferase reporter activity, SD in parentheses
Source text: as §1, §2, §3

[9] = system: viral vectors that replicate using WT HIV reverse transcriptase; assay: single-round infectivity assay, luciferase reporter, vector with WT RT; format: cell-based, HIV-1; settings: SD in parentheses
Source text: as §1, §2, §3

[10] = cytotoxicity assay (ATP-Lite cell viability); format: cell-based, human; settings: human, HOS cells, 48 hours, SD in parentheses
Protocol: as §4

[11] = Human immunodeficiency virus 1, broader panel table, read-out: EC50 WT (Table S1)
[12] = Human immunodeficiency virus 1, HOS, HOS cells, reduction of luciferase reporter activity, read-out: EC50 WT

Structure (SMILES) | EC50 [1] | EC50 [2] | EC50 [3] | EC50 [4] | EC50 [5] | EC50 [6] | EC50 [7] | Therapeutic Index (T.I.) (HOS cells) | EC50 [8] | EC50 [9, 11] | CC50 at 48 h [10] | EC50 [9, 12] | loss of potency against Y188L ([5]; compared with rilpivirine (1)) | loss of potency against E138K ([8]; compared with rilpivirine (1)) | EC50 ([9]; HOS cells, reduction of luciferase reporter activity, read-out: EC50 WT)
Cc1cc(/C=C/C#N)cc(C)c1Nc1ncc([N+](=O)[O-])c(Nc2ccc(C#N)cc2)n1 [Analogue 8] | 5.3 nM | 86 nM | 0.3 nM | 0.2 nM | 13 nM | 2.6 nM | 1 nM | 1.0x10^5 | 4.9 nM | 0.9 nM | – | – | – | – | –
COc1ccc(Cn2cnc3c(Nc4c(C)cc(/C=C/C#N)cc4C)nc(Nc4ccc(C#N)cc4)nc32)cc1 [Analogue 10] | 9.5 nM | – | – | – | > 100 nM | – | 1 nM | 1.4x10^5 | 14 nM | – | 154000 nM | 1.1 nM | – | – | –
Cc1cc(/C=C/C#N)cc(C)c1Nc1nc(Nc2ccc(C#N)cc2)nc2[nH]cnc12 [Analogue 11] | 0.5 nM | 1.2 nM | 0.4 nM | < 0.1 nM | 13 ± 0.5 nM | 0.4 nM | 0.1 nM | 1.2x10^6 | 2.9 nM | 0.1 nM | – | – | nearly six-fold | four- to fourteen-fold | –
COc1ccc(Cn2cnc3c(Nc4ccc(C#N)cc4)nc(Nc4c(C)cc(/C=C/C#N)cc4C)nc32)cc1 [Analogue 12] | 6.5 nM | – | – | – | 12 nM | – | 1.9 nM | 3.1x10^4 | 15 nM | – | 83000 nM | 2.7 nM | – | – | –
CC(=O)c1ccc(Nc2nc(Nc3c(C)cc(/C=C/C#N)cc3C)nc3[nH]cnc23)cc1 [Analogue 14] | 5.9 nM | – | – | – | 64 nM | – | 0.3 nM | 2.7x10^4 | 1.5 nM | – | 8000 nM | 0.3 nM | – | – | –
Cc1cc(/C=C/C#N)cc(C)c1Nc1nc(Nc2ccc(C(F)(F)F)cc2)c2nc[nH]c2n1 [Analogue 15] | 3.3 nM | – | – | – | 17 nM | – | 0.9 nM | 1.1x10^4 | 4.7 nM | – | 17000 nM | 1.5 nM | – | – | –
COc1ccc(Nc2nc(Nc3c(C)cc(/C=C/C#N)cc3C)nc3[nH]cnc23)cc1 [Analogue 16] | 2.3 nM | – | – | – | 29 nM | – | 0.2 nM | 6.0x10^4 | 1.1 nM | – | 12000 nM | 0.2 nM | – | – | 0.4 nM
Cc1cc(/C=C/C#N)cc(C)c1Nc1nc(Nc2ccc(F)cc2)c2nc[nH]c2n1 [Analogue 17] | 2 nM | – | – | – | 15 nM | – | 1.3 nM | 7.1x10^3 | 3.1 nM | – | 12000 nM | 1.7 nM | – | – | –
Cc1cc(/C=C/C#N)cc(C)c1Nc1nc(Nc2cc(F)cc(F)c2)c2nc[nH]c2n1 [Analogue 18] | 56 nM | – | – | – | > 100 nM | – | 4.9 nM | 1.4x10^3 | 28 nM | – | 13000 nM | 9.3 nM | – | – | –
Cc1cc(/C=C/C#N)cc(C)c1Nc1nc(Nc2ccccn2)c2nc[nH]c2n1 [Analogue 19] | > 100 nM | – | – | – | > 100 nM | – | > 100 nM | < 3.6x10^2 | > 100 nM | – | 36000 nM | > 100 nM | – | – | –
Cc1nc2cc(Nc3nc(Nc4c(C)cc(/C=C/C#N)cc4C)nc4[nH]cnc34)ccc2s1 [Analogue 22] | 6.1 nM | – | – | – | > 100 nM | – | 2.2 nM | 9.5x10^4 | 8.3 nM | – | 57000 nM | 0.6 nM | – | – | –
Cc1cc(/C=C/C#N)cc(C)c1Nc1nc(Nc2ccc3c(c2)CCC3)c2nc[nH]c2n1 [Analogue 23] | 4.1 nM | – | – | – | > 100 nM | – | 1.7 nM | 7.5x10^4 | 7.9 nM | – | 30000 nM | 0.4 nM | – | – | –
Cc1cc(/C=C/C#N)cc(C)c1Nc1nc(Nc2ccc3c(c2)OCO3)c2nc[nH]c2n1 [Analogue 24] | 3 nM | – | – | – | 23 nM | – | 0.6 nM | 1.9x10^5 | 1.6 nM | – | 19000 nM | 0.1 nM | – | – | –
Cc1cc(/C=C/C#N)cc(C)c1Nc1nc(Nc2ccc3nn[nH]c3c2)c2nc[nH]c2n1 [Analogue 25] | > 100 nM | – | – | – | > 100 nM | – | > 100 nM | 5.3x10^3 | > 100 nM | – | 100000 nM | 19 nM | – | – | –
